28 compounds from US20230339854A1, “Negative Allosteric Modulation of GluN3-Containing N-Methyl-D-Aspartate Receptors” (Emory University, priority 2020, published 2023) can be followed below.

T1 sequence (Q8TCU5 24-1115, other chains not shown): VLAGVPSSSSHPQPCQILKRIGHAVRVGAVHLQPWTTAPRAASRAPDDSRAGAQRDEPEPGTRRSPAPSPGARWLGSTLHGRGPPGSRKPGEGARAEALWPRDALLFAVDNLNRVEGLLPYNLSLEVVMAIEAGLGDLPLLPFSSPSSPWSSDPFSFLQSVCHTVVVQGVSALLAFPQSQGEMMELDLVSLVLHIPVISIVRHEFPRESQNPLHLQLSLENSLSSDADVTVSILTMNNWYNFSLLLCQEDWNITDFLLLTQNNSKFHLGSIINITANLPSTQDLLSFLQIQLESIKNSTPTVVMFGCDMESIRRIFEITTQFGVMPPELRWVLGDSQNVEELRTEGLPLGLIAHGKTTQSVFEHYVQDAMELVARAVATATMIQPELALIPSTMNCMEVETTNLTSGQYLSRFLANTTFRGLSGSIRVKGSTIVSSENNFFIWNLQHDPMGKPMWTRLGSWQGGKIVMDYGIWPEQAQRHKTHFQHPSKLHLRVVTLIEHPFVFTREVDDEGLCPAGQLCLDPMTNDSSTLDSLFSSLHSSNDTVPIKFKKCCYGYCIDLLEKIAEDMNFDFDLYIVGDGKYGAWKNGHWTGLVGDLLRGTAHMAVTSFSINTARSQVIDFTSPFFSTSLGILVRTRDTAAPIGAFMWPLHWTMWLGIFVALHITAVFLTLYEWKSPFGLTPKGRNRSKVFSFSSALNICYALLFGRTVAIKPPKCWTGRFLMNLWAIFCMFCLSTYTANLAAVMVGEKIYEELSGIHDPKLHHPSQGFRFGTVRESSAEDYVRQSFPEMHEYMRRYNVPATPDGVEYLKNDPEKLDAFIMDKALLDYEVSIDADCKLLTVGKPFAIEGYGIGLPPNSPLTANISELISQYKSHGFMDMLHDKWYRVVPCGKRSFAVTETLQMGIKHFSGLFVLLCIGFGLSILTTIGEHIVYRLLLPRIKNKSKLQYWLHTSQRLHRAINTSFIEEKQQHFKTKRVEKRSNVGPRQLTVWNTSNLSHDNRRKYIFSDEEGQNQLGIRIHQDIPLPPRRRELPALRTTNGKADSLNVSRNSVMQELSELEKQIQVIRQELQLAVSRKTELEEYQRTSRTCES

This assay addresses T1, human GluN1^FA,TL/GluN3A receptors (Homo sapiens, UniProt Q8TCU5).
T1 construct: Human GluN3A (NP_597702.2) and rat GluN3B (NP_579842.2) were synthesized and subcloned into SP6 plasmids; expressed in transfected cells; host or cells: Xenopus laevis oocytes, cRNA injection (GluN1:GluN3 1:3)
Put plainly: Two-electrode voltage-clamp recordings of GluN1^FA,TL/GluN3A receptors in Xenopus oocytes. As to conditions: read-out: hGluN1^FA,TL/hGluN3A (100 × Idrug/Icontrol at 30 μM drug). Type of assay: cell-based. From the text:
cDNA encoding human wild-type (WT) GluN1-1a (GenBank accession numbers NP_015566, hereafter GluN1) and rat GluN1-1a (NP_058706.1) were synthesized and subcloned into pGEMHE plasmid; some experiments used the rat splice variant GluN1-4a (NP_001257531.1). Human GluN3A (NP_597702.2) and rat GluN3B (NP_579842.2) were synthesized and subcloned into SP6 plasmids. For most experiments, human GluN1 was co-expressed with human GluN3A, except for mutagenesis experiments where rat GluN1 was co-expressed with human GluN3A. Rat GluN1-4a was always expressed with rat GluN3B.
Defolliculated Xenopus laevis oocytes (stage V-VI) were obtained from Ecocyte BioScience (Austin, Texas), or prepared from commercially available Xenopus ovaries (Xenopus 1, Dexter, MI) as previously described (Hansen, et al., Mol. Pharmacol., 2013). A Drummond Nanoject II (Broomall, PA) was used to inject oocytes with cRNAs encoding GluN1 and GluN3 at a 1:3 ratio in RNase-free water. The cRNA was diluted as needed to give responses with amplitudes ranging between 200-2000 nA (0.2-10 ng total cRNA). Following cRNA injection, the oocytes were stored at 15-19° C. in Barth's solution that contained (in mM) 88 NaCl, 2.4 NaHCO3, 1 KCl, 0.33 Ca(NO3)2, 0.41 CaCl2), 0.82 MgSO4, and 5 Tris-HCl (pH 7.4 with NaOH), supplemented with 1 μg/ml streptomycin (Invitrogen, Carlsbad, CA) and 100 μg/ml gentamicin (Fisher Scientific, Pittsburgh, PA). Recordings were performed 2-5 days following cRNA microinjection at room temperature (23° C.) using a two-electrode voltage-clamp amplifier (OC725, Warner Instrument, Hamilton, CT). The signal was low-pass filtered at 10-20 Hz (4-pole, −3 dB Bessel) and digitized at the Nyquist rate using PCI-6025E or USB-6212 BNC data acquisition boards (National Instruments, Austin, TX) using EasyOocyte (http://www.easyoocyte.io/). Oocytes were placed in a custom-made chamber and continuously perfused (2.5 ml/min) with oocyte recording solution containing (in mM) 90 NaCl, 1 KCl, 10 HEPES, 0.5-1.0 BaCl2, and 0.01 EDTA (pH 7.4 with NaOH). Solutions were applied by gravity, and solution exchange was controlled through a rotary valve (Hamilton, Reno, NV). Recording electrodes were filled with 0.3-3.0 M KCl, and current responses were recorded at a holding potential of −40 mV.
Response (%)=(100−minimum)/(1+([concentration]/IC50)^nH)+minimum (2) • where nH is the Hill slope, IC50 is the concentration that produces a half-maximal effect, and minimum is the degree of residual inhibition at a saturating concentration of the negative allosteric modulator.
The afore-referenced compounds were screened in the same assay as EU1180-438 to determine their effects on hGluN1^FA,TL/hGluN3A receptors. Selected compounds that inhibited by more than 20% at the concentration at which they were initially evaluated (either 10 or 30 μM) were analyzed further, and a dose-response curve was generated to determine their IC50 values.
In general terms: In two-electrode clamp one electrode senses voltage and the other passes current.
Consider `COc1ccc(C(COc2cccc(C)n2)N2Cc3ccc(F)cc3C2=O)cc1` (stereo not shown) [EU1180-599, 6-Fluoro-2-(1-(4-methoxyphenyl)-2-((6-methylpyridin-2-yl)oxy)ethyl)isoindolin-1-one], for which the remaining activity at 30 µM was 57%. Turning to `CC(C)Oc1ccc(C(COc2ccc(C(F)(F)F)cc2)N2Cc3ccc(F)cc3C2=O)cc1` (stereo not shown) [EU1180-575, 6-fluoro-2-(1-(4-isopropoxyphenyl)-2-(4-(trifluoromethyl)phenoxy)ethyl)isoindolin-1-one], the remaining activity at 30 µM is 76%. Take `CC(C)Oc1ccc(C(COc2ccc(OC(F)(F)F)cc2)N2Cc3ccc(C(F)(F)F)cc3C2=O)cc1` (stereo not shown) [EU1180-539, 2-(1-(4-isopropoxyphenyl)-2-(4-(trifluoromethoxy)phenoxy)ethyl)-6-(trifluoromethyl)isoindolin-1-one]: the remaining activity at 30 µM was 99%.

For the compound `COc1ccc(OCC(c2ccc(OC)cc2F)N2Cc3cc(F)ccc3C2=O)cc1` (stereo not shown) [EU1180-536, 5-Fluoro-2-(1-(2-fluoro-4-methoxyphenyl)-2-(4-methoxyphenoxy)ethyl)isoindolin-1-one], the remaining activity at 30 µM was determined as 80%. The figure for `COc1ccc(OCC(c2ccc(OC)cc2F)N2Cc3cc(Cl)ccc3C2=O)cc1` (stereo not shown) [EU1180-532, 5-Chloro-2-(1-(2-fluoro-4-methoxyphenyl)-2-(4-methoxyphenoxy)ethyl)isoindolin-1-one] is 95%; for `CC(C)Oc1ccc(C(COc2ccc(OC(F)(F)F)cc2)N2Cc3ccc(Br)cc3C2=O)cc1` (stereo not shown) [EU1180-553, 6-bromo-2-(1-(4-isopropoxyphenyl)-2-(4-(trifluoromethoxy)phenoxy)ethyl)isoindolin-1-one] it is 101%; for `Cc1cccc(OCC(c2ccc(OC(C)C)cc2)N2Cc3ccc(Br)cc3C2=O)n1` (stereo not shown) [EU1180-514, 6-bromo-2-(1-(4-isopropoxyphenyl)-2-((6-methylpyridin-2-yl)oxy)ethyl)isoindolin-1-one] it is 93%. The figure for `COc1ccc(OCC(c2c(F)cc(OC)cc2F)N2Cc3cc(F)ccc3C2=O)cc1` (stereo not shown) [EU1180-551, 2-(1-(2,6-Difluoro-4-methoxyphenyl)-2-(4-methoxyphenoxy)ethyl)-5-fluoroisoindolin-1-one] is 92%; for `COc1ccc(C(COc2cccc(C)n2)N2Cc3ccc(Br)cc3C2=O)cc1` (stereo not shown) [EU1180-597, 6-Bromo-2-(1-(4-methoxyphenyl)-2-((6-methylpyridin-2-yl)oxy)ethyl)isoindolin-1-one] it is 69%. The figure for `COc1ccc(C(COc2cccc(C)n2)N2Cc3cc(F)ccc3C2=O)cc1` (stereo not shown) [EU1180-598, 5-Fluoro-2-(1-(4-methoxyphenyl)-2-((6-methylpyridin-2-yl)oxy)ethyl)isoindolin-1-one] is 89%.

Regarding `CC(C)Oc1ccc(C(COc2ccc(OC(F)(F)F)cc2)N2Cc3ccccc3C2=O)cc1` (stereo not shown) [EU1180-538, 2-(1-(4-isopropoxyphenyl)-2-(4-(trifluoromethoxy)phenoxy)ethyl)isoindolin-1-one], the remaining activity at 30 µM was determined as 99%. Then `CC(C)Oc1ccc(C(COc2ccc(C(F)(F)F)cc2)N2Cc3cc(F)ccc3C2=O)cc1` (stereo not shown) [EU1180-576, 5-fluoro-2-(1-(4-isopropoxyphenyl)-2-(4-(trifluoromethyl)phenoxy)ethyl)isoindolin-1-one], with 104%; and `COc1cc(F)c(C(COc2cccc(C)n2)N2Cc3cc(F)ccc3C2=O)c(F)c1` (stereo not shown) [EU1180-613, 2-(1-(2,6-Difluoro-4-methoxyphenyl)-2-((6-methylpyridin-2-yl)oxy)ethyl)-5-fluoroisoindolin-1-one], with 89%. Regarding `COc1ccc(OCC(c2ccc(OC)cc2)N2Cc3ccc(Br)cc3C2=O)cc1` (stereo not shown) [EU1180-520, 6-Bromo-2-(2-(4-methoxyphenoxy)-1-(4-methoxyphenyl)ethyl)isoindolin-1-one], the remaining activity at 30 µM is 64%. Then `COc1ccc(OCC(c2c(F)cc(OC)cc2F)N2Cc3ccc(Br)cc3C2=O)cc1` (stereo not shown) [EU1180-550, 6-Bromo-2-(1-(2,6-difluoro-4-methoxyphenyl)-2-(4-methoxyphenoxy)ethyl)isoindolin-1-one], with 93%. The figure for `COc1ccc(C(COc2cccc(C)n2)N2Cc3cc(F)ccc3C2=O)c(F)c1` (stereo not shown) [EU1180-601, 5-Fluoro-2-(1-(2-fluoro-4-methoxyphenyl)-2-((6-methylpyridin-2-yl)oxy)ethyl)isoindolin-1-one] is 79%; for `COc1ccc(C(COc2cccc(C)n2)N2Cc3cc(Br)ccc3C2=O)c(F)c1` (stereo not shown) [EU1180-606, 5-Bromo-2-(1-(2-fluoro-4-methoxyphenyl)-2-((6-methylpyridin-2-yl)oxy)ethyl)isoindolin-1-on] it is 66%. As to `CC(C)Oc1ccc(C(COc2ccc(C(F)(F)F)cc2)N2Cc3ccc(C(F)(F)F)cc3C2=O)cc1` (stereo not shown) [EU1180-572, 2-(1-(4-isopropoxyphenyl)-2-(4-(trifluoromethyl)phenoxy)ethyl)-6-(trifluoromethyl)isoindolin-1-one], the remaining activity at 30 µM turned out to be 91%.

As to `COc1ccc(OCC(c2ccc(OC)cc2F)N2Cc3cc(Br)ccc3C2=O)cc1` (stereo not shown) [EU1180-534, 5-Bromo-2-(1-(2-fluoro-4-methoxyphenyl)-2-(4-methoxyphenoxy)ethyl)isoindolin-1-one], the remaining activity at 30 µM turned out to be 99%. The figure for `CCOc1ccc(OCC(c2ccc(OC(C)C)cc2)N2Cc3cc(Cl)ccc3C2=O)cc1` (stereo not shown) [EU1180-589, 5-chloro-2-(2-(4-ethoxyphenoxy)-1-(4-isopropoxyphenyl)ethyl)isoindolin-1-one] is 87%; for `COc1ccc(OCC(c2ccc(OC)cc2)N2Cc3ccc(F)cc3C2=O)cc1` (stereo not shown) [EU1180-522, 6-Fluoro-2-(2-(4-methoxyphenoxy)-1-(4-methoxyphenyl)ethyl)isoindolin-1-one] it is 25%; for `COc1ccc(OCC(c2ccc(OC)cc2F)N2Cc3ccc(F)cc3C2=O)cc1` (stereo not shown) [EU1180-537, 6-Fluoro-2-(1-(2-fluoro-4-methoxyphenyl)-2-(4-methoxyphenoxy)ethyl)isoindolin-1-one] it is 66%. The figure for `COc1cc(F)c(C(COc2cccc(C)n2)N2Cc3ccccc3C2=O)c(F)c1` (stereo not shown) [EU1180-608, 2-(1-(2,6-Difluoro-4-methoxyphenyl)-2-((6-methylpyridin-2-yl)oxy)ethyl)isoindolin-1-one] is 70%; for `COc1ccc(C(COc2cccc(C)n2)N2Cc3cc(Br)ccc3C2=O)cc1` (stereo not shown) [EU1180-596, 5-Bromo-2-(1-(4-methoxyphenyl)-2-((6-methylpyridin-2-yl)oxy)ethyl)isoindolin-1-one] it is 92%.

Take `Cc1cccc(OCC(c2ccc(OC(C)C)cc2)N2Cc3cc(F)ccc3C2=O)n1` (stereo not shown) [EU1180-513, 5-fluoro-2-(1-(4-isopropoxyphenyl)-2-((6-methylpyridin-2-yl)oxy)ethyl)isoindolin-1-one]: the remaining activity at 30 µM amounted to 87%. Consider `COc1ccc(C(COc2cccc(C)n2)N2Cc3ccc(Cl)cc3C2=O)c(F)c1` (stereo not shown) [EU1180-605, 6-Chloro-2-(1-(2-fluoro-4-methoxyphenyl)-2-((6-methylpyridin-2-yl)oxy)ethyl)isoindolin-1-one], for which the remaining activity at 30 µM is 69%. The figure for `COc1ccc(OCC(c2ccc(OC)c(OC)c2)N2Cc3cc(Cl)ccc3C2=O)cc1` (stereo not shown) [EU1180-524, 5-Chloro-2-(1-(3,4-dimethoxyphenyl)-2-(4-methoxyphenoxy)ethyl)isoindolin-1-one] is 102%; for `COc1ccc(OCC(c2ccc(OC)cc2)N2Cc3cc(Cl)ccc3C2=O)cc1` (stereo not shown) [EU1180-517, 5-Chloro-2-(2-(4-methoxyphenoxy)-1-(4-methoxyphenyl)ethyl)isoindolin-1-one] it is 92%.
